Test results taken from US10258614B2, “Compositions and methods for treating schizophrenia” (priority 2014, dated 2019).
Values joined by “and” are separate entries in the source; they are usually repeats but may differ in a detail not shown here. Identical values can stand only once. Counter-ions that a name gives are not always drawn. Like-named read-outs stand apart in the source and are kept apart here.

How the values were obtained:
5-HT2A receptors [1] = biological target: 5-HT2A receptors (Homo sapiens, UniProt P28223); experiment: In vitro receptor binding studies
Chain of 5-HT2A receptors (Homo sapiens, UniProt P28223) (P28223 whole entry): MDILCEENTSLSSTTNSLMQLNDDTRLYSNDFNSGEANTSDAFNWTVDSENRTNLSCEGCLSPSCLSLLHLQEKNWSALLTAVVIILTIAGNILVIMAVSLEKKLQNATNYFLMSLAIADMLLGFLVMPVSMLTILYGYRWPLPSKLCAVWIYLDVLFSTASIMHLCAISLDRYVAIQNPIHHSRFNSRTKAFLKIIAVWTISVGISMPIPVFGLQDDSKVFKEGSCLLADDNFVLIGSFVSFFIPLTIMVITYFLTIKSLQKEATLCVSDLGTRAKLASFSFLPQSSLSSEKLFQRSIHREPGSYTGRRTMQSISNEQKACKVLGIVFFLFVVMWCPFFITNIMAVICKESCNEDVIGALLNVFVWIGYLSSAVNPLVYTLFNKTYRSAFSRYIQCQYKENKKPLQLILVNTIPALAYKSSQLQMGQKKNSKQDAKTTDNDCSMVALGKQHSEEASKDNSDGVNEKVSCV

al-adrenergic receptors = experiment: In vitro receptor binding studies
sigma2 receptors [2] = biological target: sigma2 receptors (Homo sapiens, UniProt Q5BJF2); experiment: In vitro receptor binding studies
Chain of sigma2 receptors (Homo sapiens, UniProt Q5BJF2) (Q5BJF2 whole entry): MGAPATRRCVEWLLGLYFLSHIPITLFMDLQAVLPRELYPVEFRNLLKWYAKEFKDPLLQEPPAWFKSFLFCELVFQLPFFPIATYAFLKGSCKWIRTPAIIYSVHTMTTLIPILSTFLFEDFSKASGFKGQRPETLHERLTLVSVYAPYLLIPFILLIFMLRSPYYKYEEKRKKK

DA receptors = experiment: In vitro receptor binding studies; conditions: read-out: IC50 (affinity for DA receptors)
5-HT2A receptors [3] = experiment: In vivo functional tests
Source text: (§1) In in vivo functional tests, Compound (I) acted as an antagonist at sigma2 and 5-HT2A receptors.

sigma2 receptors [4] = experiment: In vivo functional tests
Source text: as §1

[5] = test system: dopamine turnover, DA metabolites DOPAC and HVA; experiment: Dopamine turnover and DA metabolite output after oral administration; type: in vivo
Source text: as §1

[6] = test system: methamphetamine-induced hyperlocomotion; experiment: Methamphetamine-induced hyperlocomotion; type: in vivo, male Wistar rats; conditions: for methamphetamine-induced hyperlocomotion: male Wistar rats
Procedure: (§2) Compound (I) was tested in male Wistar rats in several behavioral paradigms designed to evaluate the potential for producing antipsychotic activity of drugs in humans. Compound (I) inhibited methamphetamine-, apomorphine-, and phencyclidine-induced hyperlocomotion in a similar manner to other antipsychotics.

[7] = test system: apomorphine-induced hyperlocomotion; experiment: Apomorphine-induced hyperlocomotion; type: in vivo; conditions: male Wistar rats
Procedure: as §2

[8] = test system: phencyclidine-induced hyperlocomotion; experiment: Phencyclidine-induced hyperlocomotion; type: in vivo; conditions: male Wistar rats
Procedure: as §2

[9] = test system: PCP-induced social interaction impairment; experiment: PCP-induced social interaction impairment; type: in vivo, male Wistar rats; conditions: after repeated administration
[10] = test system: spontaneous alternation behavior impairment induced by MK-801; experiment: Impairment of spontaneous alternation behavior induced by MK-801; design: species or system male Wistar rats; conditions: rat, in vivo
rats = experiment: Safety pharmacology studies (general activity and behavior, CNS, respiratory, gastrointestinal, water and electrolyte excretion); type: in vivo
Procedure: In a series of safety pharmacology studies, the effects of Compound (I) on general activity and behavior, the CNS, respiratory function, gastrointestinal system, and water and electrolyte excretion were examined in rats at an oral dose range of 1 to 30 mg/kg Compound (I) induced various changes in general activity and behavior. These clinical signs were observed between 0.25 to 4 hours post-dosing and disappeared by 6 hours post-dosing. Compound (I) inhibited CNS function and decreased thresholds for electroshock-induced convulsion.

IKr current = IKr current (Homo sapiens, UniProt Q12809); experiment: In vitro electrophysiology, cultured cells expressing cloned cardiac ion channels
Chain of IKr current (Q12809 whole entry): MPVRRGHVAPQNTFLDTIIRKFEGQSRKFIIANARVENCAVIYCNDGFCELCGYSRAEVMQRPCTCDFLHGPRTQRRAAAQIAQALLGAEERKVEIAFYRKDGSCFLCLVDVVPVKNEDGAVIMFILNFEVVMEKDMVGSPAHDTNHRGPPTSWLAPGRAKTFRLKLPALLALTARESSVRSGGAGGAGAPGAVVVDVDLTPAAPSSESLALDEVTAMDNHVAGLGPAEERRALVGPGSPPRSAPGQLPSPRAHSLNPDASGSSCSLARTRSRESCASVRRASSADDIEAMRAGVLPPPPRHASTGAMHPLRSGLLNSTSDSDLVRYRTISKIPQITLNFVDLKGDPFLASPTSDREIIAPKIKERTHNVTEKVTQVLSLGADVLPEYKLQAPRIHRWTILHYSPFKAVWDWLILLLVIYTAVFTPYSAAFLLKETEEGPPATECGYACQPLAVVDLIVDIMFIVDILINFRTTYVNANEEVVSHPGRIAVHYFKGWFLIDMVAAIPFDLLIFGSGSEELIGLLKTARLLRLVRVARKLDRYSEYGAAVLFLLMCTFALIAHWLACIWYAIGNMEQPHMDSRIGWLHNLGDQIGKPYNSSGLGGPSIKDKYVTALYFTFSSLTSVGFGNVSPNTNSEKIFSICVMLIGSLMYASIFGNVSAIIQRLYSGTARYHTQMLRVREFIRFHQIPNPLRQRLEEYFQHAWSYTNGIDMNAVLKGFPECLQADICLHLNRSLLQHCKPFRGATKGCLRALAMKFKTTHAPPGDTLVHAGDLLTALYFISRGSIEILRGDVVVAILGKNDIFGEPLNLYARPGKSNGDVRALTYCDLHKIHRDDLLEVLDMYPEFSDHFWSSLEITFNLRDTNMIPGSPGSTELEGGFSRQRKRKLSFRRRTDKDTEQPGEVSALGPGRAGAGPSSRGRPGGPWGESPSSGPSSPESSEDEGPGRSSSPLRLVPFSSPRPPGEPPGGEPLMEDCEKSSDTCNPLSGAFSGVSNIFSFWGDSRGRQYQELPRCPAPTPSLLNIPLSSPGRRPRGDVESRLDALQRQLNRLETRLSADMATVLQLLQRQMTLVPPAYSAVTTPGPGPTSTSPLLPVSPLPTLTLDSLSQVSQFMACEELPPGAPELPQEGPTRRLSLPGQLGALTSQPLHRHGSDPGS
Source text: (§3) The effects of Compound (I) on the cardiovascular system were examined in in vitro and in vivo studies.

in vivo [11] = experiment: in vivo; design: species or system rats; conditions: rat
Procedure: (§4) Pharmacokinetic (PK) studies of Compound (I) have been performed particularly in rats and monkeys. Following a single oral administration, Compound (I) was rapidly absorbed. Plasma radioactivity peaked between 0.63 and 2.75 hours in male rats, and between 3 and 3.5 hours in male monkeys. […] The elimination half-lives of radioactivity from plasma were 45.13 to 51.52 hours in rats and 174.74 to 184.78 hours in monkeys. The elimination half-lives of unchanged Compound (I) were 1.68 to 2.06 hours in rats, and 1.68 to 2.57 hours in monkeys.
Food and gender effects were also assessed in rats.
(§5) The major route of elimination of radioactivity in rats and monkeys following a single oral or intravenous administration was via the feces. The excretion to bile was 44.2% within 48 hours after a single oral administration to bile duct cannulated rats. Urinary excretion rates of radioactivity were about 35% in rats and monkeys. […] The enterohepatic circulation rate was determined to be about 27% after intraduodenal administration of bile samples from ^14C-Compound (I)-treated rats.

in vivo [12] = experiment: in vivo; design: species or system monkeys; conditions: monkey
Procedure: as §4
(§6) After single administration of BFB-520 in monkeys, exposure levels of BFB-520, Compound (I) and BFB-999 increased with a dose increment larger than the proportionate one. […] Finally, the brain transfer of Compound (I) was studied with male rats after oral administration (10 mg/kg). […] The Kp value (brain/plasma concentration ratio) was 1.38 mL/g.
as §5

in vivo [13] = experiment: in vivo; design: species or system male rats; conditions: rat, po, 10 mg/kg
Procedure: as §6

[14] = test system: human P450 isoforms (CYP1A2, 2A6, 2B6, 2C8/9, 2C19, 2E1 and 3A4); experiment: Inhibition of human P450 isoforms; type: in vitro ADME
CYP2D6 = CYP2D6 (Homo sapiens, UniProt P10635); experiment: Inhibition of human P450 isoforms; type: in vitro ADME
Chain of CYP2D6 (P10635 whole entry, canonical isoform): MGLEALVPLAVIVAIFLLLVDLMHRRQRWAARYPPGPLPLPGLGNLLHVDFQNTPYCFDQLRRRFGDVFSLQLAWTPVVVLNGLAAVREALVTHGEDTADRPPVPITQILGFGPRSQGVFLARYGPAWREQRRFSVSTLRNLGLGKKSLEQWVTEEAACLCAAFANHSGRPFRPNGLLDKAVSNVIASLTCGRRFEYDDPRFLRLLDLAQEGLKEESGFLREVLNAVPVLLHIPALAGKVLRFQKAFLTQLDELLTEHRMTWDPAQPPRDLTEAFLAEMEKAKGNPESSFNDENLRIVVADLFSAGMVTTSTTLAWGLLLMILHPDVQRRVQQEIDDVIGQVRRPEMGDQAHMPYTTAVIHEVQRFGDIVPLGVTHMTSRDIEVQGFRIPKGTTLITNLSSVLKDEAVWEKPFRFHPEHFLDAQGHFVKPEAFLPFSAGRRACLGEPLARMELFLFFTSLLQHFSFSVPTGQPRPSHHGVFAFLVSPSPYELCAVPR

[15] = Part 1 single dose MR formulation pharmacokinetic study in healthy CYP2D6 EM male subjects; type: in vivo, human; design: Cmax increase, food effect: unit not given beside the values; conditions: for AUC(0-t) / Cmax / half-life: plasma
Source text: Part 1 of this study was designed to characterize and compare the pharmacokinetic (PK) profile of Compound (I) when administered as MR formulations, and food effects, following a single dose administration in a 6-way, within subject, crossover design.
Part 1 of the study is an open-label, non-randomized, single dose, 6-period crossover design in 12 healthy CYP 2D6 EM male subjects. For Part 1, subjects will receive the following regimens in a non-randomised manner:
Regimen A: MR Formulation prototype 1: 32 mg Compound (I) slow release administered in the fasted state
A Two-Part Study Designed to Evaluate the Pharmacokinetic Profile of Compound (I) and its Main Metabolites Following Single and Multiple Dose Modified Release Prototype Formulation Administration in Healthy CYP2D6 Extensive Metabolizer Male and Female Subjects, and to Evaluate the Relationship Between the Pharmacokinetic Profile of Compound (I) and its Main Metabolites and Cardiovascular Parameters.

QT/QTc interval = experiment: Analysis of relationship between QT/QTc and plasma concentrations; type: in vivo, human
Procedure: Increases in QTc interval were observed and seemed to be related to the exposure to Compound (I) and its metabolite BFB-520. […] A further analysis of the relationship between QT/QTc and Compound (I) and BFB-520 concentrations was performed.

sleep architecture = experiment: CYR-101C01 Phase 2a study, sleep recordings (PSG) and PSQI; type: in vivo, human
[16] = test system: human liver microsomes, cytochromes P450
[17] = test system: guinea pig papillary muscle
Source text: as §3

Compound: O=C(CN1CCC(CN2Cc3ccccc3C2=O)CC1)c1ccc(F)cc1 [Compound (I), 2-((1-(2-(4-Fluorophenyl)-2-oxoethyl)piperidin-4-yl)methyl)isoindolin-1-one monohydrochloride dihydrate]
- Ki (5-HT2A receptors [1]; 5-HT2A receptor): 7.53 nM
- Ki (al-adrenergic receptors): 14.4 nM
- Ki (sigma2 receptors [2]; sigma2 receptor): 8.19 nM
- IC50 (DA receptors): > 1000 nM
- functional activity at 5-HT2A receptors (5-HT2A receptors [3]): antagonist
- functional activity at sigma2 receptors (sigma2 receptors [4]): antagonist
- monoamine levels ([5]; effective dose levels in animal models of antipsychotic activity): did not affect
- dopamine turnover in the accumbens and striatum ([5]; oral administration): slightly increased
- output of DA metabolites such as DOPAC and HVA in prefrontal cortex ([5]; oral, high dose levels): increased the output
- methamphetamine-induced hyperlocomotion [6]: inhibited
- apomorphine-induced hyperlocomotion [7]: inhibited
- phencyclidine-induced hyperlocomotion [8]: inhibited
- PCP-induced social interaction impairment [9]: significantly ameliorated
- impairment of spontaneous alternation behavior induced by MK-801 [10]: improved
- CNS function (rats; oral 1 to 30 mg/kg): inhibited
- thresholds for electroshock-induced convulsion (rats; oral 1 to 30 mg/kg): decreased
- time by which clinical signs disappeared post-dosing (rats; oral 1 to 30 mg/kg): ≤ 6 h
- effects at high doses (rats; oral, high doses (>10 mg/kg)): affected respiratory function, inhibited gastric emptying, damaged the gastrointestinal membrane, decreased urine volume, and increased urine potassium excretion
- IC50 (IKr current): 325 nM
- recovery of given radioactivity in carcass (in vivo [11]; male, 168 h): 0.7%
- time of peak plasma radioactivity (in vivo [11]; male, po): 0.63 to 2.75 h
- enterohepatic circulation rate (in vivo [11]): about 27%
- pharmacokinetic parameters for total radioactivity, female vs male rats (in vivo [11]): comparable
- urinary excretion rate of radioactivity (in vivo [11]): about 35%
- bioavailability (in vivo [11]; po): 52.4 to 64.5%
- half-life (in vivo [11]; po): 1.68 to 2.06 h
- oral absorption rate (in vivo [11]; po): 90.3-94.7%
- transfer into milk (in vivo [11]; po): rapidly transferred into milk and were slowly eliminated
- time of peak plasma radioactivity (in vivo [12]; male, po): 3 to 3.5 h
- urinary excretion rate of radioactivity (in vivo [12]): about 35%
- bioavailability (in vivo [12]; po): ≥ 90%
- half-life (in vivo [12]; po): 1.68 to 2.57 h
- oral absorption rate (in vivo [12]; po): 70.0-99.9%
- Cmax (in vivo [13]; male): 3160 ng/mL and 4950 ng/g
- Kp value (brain/plasma concentration ratio) (in vivo [13]): 1.38 mL/g
- inhibitory effects on human P450 isoforms (CYP1A2, 2A6, 2B6, 2C8/9, 2C19, 2E1 and 3A4) [14]: No remarkable inhibitory effects
- inhibitory effect on CYP2D6 (CYP2D6): weak inhibitory effect
- dose proportionality of PK ([15]; MR formulation under fasted conditions): generally dose proportional
- Cmax increase, food effect ([15]; MR formulation, fed vs fasted): ~2 ×
- Half-life Fed to Fasted ratio ([15]; MR formulation, fed vs fasted): 0.5
- Tiag, Median ([15]; Period 1, 32 mg Slow Release, Fasted, plasma analyte): 0 h
- Tmax ([15]; male, human, oral, Period 1, 32 mg Slow Release, Fasted, plasma analyte, read-out: Tmax, Median): 2.25 h
- AUC(0-t) ([15]; male, human, oral, 32 mg, Period 1, 32 mg Slow Release, Fasted, plasma analyte, read-out: AUClast, Mean): 212 ng·h/mL
- AUC(0-t) ([15]; male, human, oral, 32 mg, Period 1, 32 mg Slow Release, Fasted, plasma analyte, read-out: AUClast, Median): 220 ng·h/mL
- Cmax ([15]; male, human, oral, 32 mg, Period 1, 32 mg Slow Release, Fasted, plasma analyte, read-out: Cmax, Mean): 22.5 ng/mL
- Cmax ([15]; male, human, oral, 32 mg, Period 1, 32 mg Slow Release, Fasted, plasma analyte, read-out: Cmax, Median): 23.7 ng/mL
- half-life ([15]; male, human, oral, 32 mg, Period 1, 32 mg Slow Release, Fasted, plasma analyte, read-out: t½, Mean (converted)): 6.26 h
- half-life ([15]; male, human, oral, 32 mg, Period 1, 32 mg Slow Release, Fasted, plasma analyte, read-out: t½, Median (converted)): 5.35 h
- half-life ([15]; male, human, oral, MR formulation under fasted conditions, read-out: Half-life): 3 to 8 h
- Cmax (QT/QTc interval; human plasma, read-out: Cmax that should not be exceeded to avoid QT prolongation): ≤ 80 ng/mL
- sleep initiation parameters (sleep onset latency, latency to persistent sleep) (sleep architecture; patients): improved
- slow wave sleep (SWS) in the first third of the night (sleep architecture; patients, PSG): significantly increased
- slow wave sleep (SWS) in the last third of the night (sleep architecture; patients, PSG): decreased
- subjective sleep quality as measured by PSQI (sleep architecture; vs placebo): improvement was greater with Compound (I) than with placebo although not statistically significant
- metabolizing enzymes [16]: mainly metabolized by enzymatic reaction other than CYP isoforms

Compound: O=C1c2ccccc2CN1CC1CCN(CC(O)c2ccc(F)cc2)CC1 (stereo not drawn) [BFB-520]
- affinity for 5-HT2A receptors compared with Compound (I) (5-HT2A receptors [1]): lower
- affinity for σ2 receptors compared with Compound (I) (sigma2 receptors [2]): lower affinity
- methamphetamine-induced hyperlocomotion [6]: inhibited
- ED50 compared with Compound (I) ([6]; methamphetamine-induced hyperlocomotion): higher than that of Compound (I)
- concentration that prolonged the action potential duration (APD) [17]: ≥ 100 nM
- IC50 (IKr current): 181 nM
- time to maximum concentration post-dosing (in vivo [12]): ≤ 4 h
- Half-life Fed to Fasted ratio ([15]; human, in vivo): 0.8
- dose proportionality of PK ([15]; human, in vivo): less so
- Cmax that should not be exceeded to avoid QT prolongation (QT/QTc interval; human, in vivo): ≤ 12 ng/mL
- metabolizing enzymes [16]: metabolized by CYP2D6 and CYP3A4
